Source: patent US20080058299A1, “Method of treating or preventing bone deterioration or osteoporosis” (priority 2005, published 2008)
Values joined by “and” are separate entries in the source; they are usually repeats but may differ in a detail not shown here. Equal entries are not always repeated. Where two headings read alike, the source gives them in different places.

Key:
[1] = Serum testosterone and estradiol concentrations in hypogonadal men treated with AndroGel for 24 months; assay type: in vivo
Source text: (§1) Ten men with severe and untreated hypogonadism due to known disease were entered into the study. […] All ten subjects had secondary hypogonadism. Eight subjects had pituitary adenomas, one had pinealoma, and one had Kallmann's syndrome. Hypogonadism developed in adulthood in nine. […] The estimated duration of hypogonadism was 2-30 years (median, 5 years). […] Of the two who had been treated, one had not been treated for four years and the other for 20 years before entering the study. The median age at entry was 51 years (range 31-78).
Estradiol was measured by ultrasensitive immunoradiometric assay (DSL, Webster, Tex.). Intra- and interassay coefficients of variation were <10%.

hypogonadal men [2] = test: Bone mineral density by DXA in hypogonadal men; assay type: in vivo
Method: (§2) Ten men with severe and untreated hypogonadism due to known disease were entered into the study.
(§3) All subjects were assessed by dual energy X-ray absorptiometry (DXA) and magnetic resonance microimaging (μMRI) at 0, 6, 12 and 24 months. The hypogonadal subjects were also assessed for markers of bone metabolism at 0, 3, and 6 months.
Bone mineral density (BMD) of the anterior-posterior lumbar spine (L1-L4) and of the right hip was determined by DXA using Hologic densitometers (Hologic, Inc., Bedford, Mass.), a QDR-4500A for the first year of the study and a Dephi A for the second. […] Scans from the same subject were evaluated by the “compare” feature of the DXA instrument. The coefficients of variation for long-term instrument stability, as assessed by daily measurements of a phantom, were <0.9%.
(§4) For all parameters, changes from 0 to 24 months were tested by multivariate analysis of variance, one factor repeated measures design. If the change from 0 to 24 months was significant, pair-wise comparisons of each treatment time (6, 12, and 24 months) against pretreatment were determined with Dunnett's test. Missing values were imputed by the method of last observation carried forward. A type I error rate of 0.05 was used for determining statistical significance. SAS statistical software, version 9.1 (SAS Institute, Inc., Cary, N.C.) was used for all analysis.

hypogonadal men [3] = test: Markers of bone metabolism in hypogonadal men; assay type: in vivo
Method: as §2, §3
After an overnight fast, blood and a timed 2-hour urine sample were collected. Serum and urine samples were frozen at −70° C. The markers and methods of assay were as follows: bone-specific alkaline phosphatase (BAP), immunoradiometric assay (Tandem-R Ostase, Beckman-Coulter, Inc., Fullerton, Calif.); osteoprotegerin, enzyme-linked immunosorbent assay (American Laboratory Products Company, Windham, N.H.); intact N-terminal propeptide of type I procollagen (PINP), radioimmunoassay, (Orion Diagnostica UniQ, IDS, Inc. Fountain Hills, Ariz.); cross-linked N-telopeptides of type I collagen (NTx), enzyme-linked immunosorbent assay (Osteomark, Ostex International, Inc. Seattle, Wash.). For each assay, all samples were measured in a single assay run.

hypogonadal men [4] = test: Magnetic resonance microimaging (μMRI) of trabecular architecture of the right distal tibia; assay type: in vivo
Source text: as §1, §3
Magnetic resonance microimaging (μMRI) of the right distal tibia was performed using a Signa 1.5 Tesla MR scanner (GE Medical Systems, Milwaukee, Wis.) and a custom-designed receive-only radiofrequency phased array surface coil. The coil was placed on the anterior right tibia, the edge 1 cm proximal to the midpoint of the medial malleolus, and the right foot was immobilized. Twenty-eight images were obtained to map trabecular architecture. Song H K, et al., Magn. Reson. Med., 41:947-53 (1999). […] The data were processed using a custom-designed program written in IDL (Interactive Data Language, Boulder, Colo.). Wehrli F W, et al., J. Bone Miner. […] The data were motion-corrected, filtered and Fourier transformed. To ensure that the same volume was analyzed at each time point for each subject, the images corresponding to the 0, 6, 12, and 24 month examinations of each subject were matched for volume of interest by identifying similar trabecular features. After the volume of interest was selected manually on each of the matched slices by tracing a line approximately 1 mm from the endocortical boundary on the anterior half of the distal metaphysis, bone volume fraction maps were computed. Subvoxel processing yielded a voxel size of 69×69×103 μm^3. Hwang S N, et al., Magn. Reson. Med., 47 (2002). A cylindrical core measuring 6.85 mm in diameter was obtained from the center of the volume of interest. (FIG. 3).
Digital topological analysis of the trabecular network was performed on the entire volume of interest. Gomberg BR, et al., IEEE Trans. […] The topological class of each image voxel was determined, yielding the density of surface voxels, curve voxels, and voxels part of mutual junctions. The topological analysis began with binarization of the three-dimensional images, followed by skeletonization, which converted the plate-like elements of the trabecular network to surfaces and the rodlike elements to curves. Each voxel was then classified as belonging to a surface, curve, or junction between these voxel types. […] One composite parameter was the surface-to-curve ration, the ratio of all surface voxels to all curve voxels. The higher the ratio, the more intact in the trabecular network, and vice versa. The second composite parameter was the topological erosion index, a ratio of parameters that are expected to increase upon trabecular deterioration (Curve edge and curve interior voxels, surface and profile edges, and curve-curve junction voxels) to those expected to decrease (surface interior voxels and surface-surface junctions). The lower the topological erosion index, the smaller the degree to which the trabecular network has deteriorated. Trabecular thickness was determined by an independent program based on the concept of fuzzy distance transform. Saha P K, et al., IEEE Trans.
as §4, with “A type I error rate of 0.05 was used for determining statistical significance. SAS statistical software, version 9.1 (SAS Institute, Inc., Cary, N.C.) was used for all analysis.” left out

[5] = cited from earlier work
postmenopausal women = details: 32 postmenopausal women, average 19 months, versus 19 placebo-treated women; cited from earlier work
[6] = distal tibia, 24 Months of treatment

C[C@]12CC[C@H]3[C@@H](CCC4=CC(=O)CC[C@@]43C)[C@@H]1CC[C@@H]2O [Testosterone]
concentration at 3 months ([1]; male, human, serum, topical, AndroGel 5-10 g/day, month 3): 6.56 ng/mL and 22.8 nM
serum testosterone concentration (in words) ([1]; throughout the 24 months of treatment): remained normal
Femoral Neck BMD, % Change 0-24 months (hypogonadal men [2]): 2.1 ± 5.1%
Femoral Neck BMD, Change 0-24 months (hypogonadal men [2]): 0.016 ± 0.038 g/cm^2
Intertrochanteric BMD, % Change 0-24 months (hypogonadal men [2]): 4.4 ± 3.7%
Intertrochanteric BMD, Change 0-24 months (hypogonadal men [2]): 0.049 ± 0.037 g/cm^2
Spine BMD, % Change 0-24 months (hypogonadal men [2]): 7.4 ± 5.1%
Spine BMD, Change 0-24 months (hypogonadal men [2]): 0.069 ± 0.053 g/cm^2
Total Hip BMD, % Change 0-24 months (hypogonadal men [2]): 3.8 ± 3.4%
Total Hip BMD, Change 0-24 months (hypogonadal men [2]): 0.034 ± 0.029 g/cm^2
Trochanter BMD, % Change 0-24 months (hypogonadal men [2]): 4.0 ± 4.7%
Trochanter BMD, Change 0-24 months (hypogonadal men [2]): 0.027 ± 0.030 g/cm^2
Ward's Triangle BMD, % Change 0-24 months (hypogonadal men [2]): 5.1 ± 10.1%
Ward's Triangle BMD, Change 0-24 months (hypogonadal men [2]): 0.028 ± 0.060 g/cm^2
Femoral Neck BMD (hypogonadal men [2]; 24 Months of treatment): 0.828 ± 0.145 g/cm^2
Intertrochanteric BMD (hypogonadal men [2]; 24 Months of treatment): 1.206 ± 0.205 g/cm^2
Spine BMD (hypogonadal men [2]; 24 Months of treatment): 1.000 ± 0.219 g/cm^2
Total Hip BMD (hypogonadal men [2]; 24 Months of treatment): 0.994 ± 0.162 g/cm^2
Ward's Triangle BMD (hypogonadal men [2]; 24 Months of treatment): 0.616 ± 0.172 g/cm^2
Spine BMD, % Change 0-24 months (hypogonadal men [2]; listed as testosterone): 7.4%
bone-specific alkaline phosphatase (BAP), in words (hypogonadal men [3]; 0 to 6 months): did not change
serum intact N-terminal propeptide of type I procollagen (PINP) (hypogonadal men [3]; 3 months of treatment): 71.3 ± 32.1 µg/L
Serum osteoprotegerin (hypogonadal men [3]; 6 months of treatment): 4.29 ± 0.82 pmol/L
Urine NTx, in words (hypogonadal men [3]; baseline to 6 months): did not change
Bone Volume Fraction, % Change 0-24 months (hypogonadal men [4]; distal tibia): 5.0 ± 4.2%
Bone Volume Fraction, Change 0-24 months (hypogonadal men [4]; distal tibia): 0.005 ± 0.004
Trabecular Thickness, % Change 0-24 months (hypogonadal men [4]; distal tibia): 1.5 ± 0.5%
Trabecular Thickness, Change 0-24 months (hypogonadal men [4]; distal tibia): 1.7 ± 0.6 μ
Bone Volume Fraction (hypogonadal men [4]; [6]): 0.103 ± 0.011
Trabecular Thickness (hypogonadal men [4]; [6]): 120.5 ± 3.8 μ
Bone Volume Fraction, % Change 0-24 months (hypogonadal men [4]; distal tibia, listed as testosterone): 5%
increase of trabecular thickness during treatment (hypogonadal men [4]; starting at 6 months): ~2%
bound to protein in the blood ([5]; circulating testosterone): 98%
share bound weakly to albumin ([5]; in men): 60%
share of binding to sex hormone binding globulin (SHBG) ([5]; in men): approximately 40%

CC[C@H](C)[C@H](NC(=O)[C@H](CCC(=O)O)NC(=O)[C@H](CO)NC(=O)[C@@H](NC(=O)[C@@H](N)CO)C(C)C)C(=O)N[C@@H](CCC(N)=O)C(=O)N[C@@H](CC(C)C)C(=O)N[C@@H](CCSC)C(=O)N[C@@H](Cc1cnc[nH]1)C(=O)N[C@@H](CC(N)=O)C(=O)N[C@@H](CC(C)C)C(=O)NCC(=O)N[C@@H](CCCCN)C(=O)N[C@@H](Cc1cnc[nH]1)C(=O)N[C@@H](CC(C)C)C(=O)N[C@@H](CC(N)=O)C(=O)N[C@@H](CO)C(=O)N[C@@H](CCSC)C(=O)N[C@@H](CCC(=O)O)C(=O)N[C@@H](CCCN=C(N)N)C(=O)N[C@H](C(=O)N[C@@H](CCC(=O)O)C(=O)N[C@@H](Cc1c[nH]c2ccccc12)C(=O)N[C@@H](CC(C)C)C(=O)N[C@@H](CCCN=C(N)N)C(=O)N[C@@H](CCCCN)C(=O)N[C@@H](CCCCN)C(=O)N[C@@H](CC(C)C)C(=O)N[C@@H](CCC(N)=O)C(=O)N[C@@H](CC(=O)O)C(=O)N[C@H](C(=O)N[C@@H](Cc1cnc[nH]1)C(=O)N[C@@H](CC(N)=O)C(=O)N[C@@H](Cc1ccccc1)C(=O)O)C(C)C)C(C)C [rhPTH]
trabecular connectivity, in words (postmenopausal women): significantly increased their trabecular connectivity
